In brackets after ≈: the same amount, converted by molar mass.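 Five compound concentrations were applied to cells in 96-well plates for 48 hours; endpoints were derived by simple linear interpolation of the resulting dose-response curve. GI50 = concentration required for 50% inhibition of growth. TGI marks complete inhibition of growth.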
Key:
Experiment in all cases: DTP human tumour cell line panel, 48 h; in the data active = GI50 below about 0.43 µM; inactive = the rest
[1] = tested on: MDA-MB-435
[2] = tested on: HOP-92 NSCLC
[3] = tested on: SNB-75 CNS
[4] = tested on: SW-620 colon
[5] = tested on: OVCAR-4 ovarian
[6] = tested on: NCI-H522 lung
[7] = tested on: EKVX NSCLC
[8] = tested on: HT29 colon
[9] = tested on: MALME-3M melanoma
[10] = tested on: SF-539 CNS
[11] = tested on: SNB-19 CNS
[12] = tested on: A549 NSCLC
[13] = tested on: A498 renal
[14] = tested on: CAKI-1 renal
[15] = tested on: UO-31 renal
[16] = tested on: SF-295 CNS
[17] = tested on: LOX IMVI melanoma
[18] = tested on: RXF 393 renal
[19] = tested on: M14 melanoma
[20] = tested on: TK-10 renal
[21] = tested on: IGROV1 ovarian
[22] = tested on: OVCAR-3 ovarian
[23] = tested on: SF-268 CNS
[24] = tested on: SK-MEL-5 melanoma
[25] = tested on: SN12C renal
[26] = tested on: ACHN renal
[27] = tested on: NCI/ADR-RES ovarian
[28] = tested on: HCT-116 colon
[29] = tested on: NCI-H23 lung
[30] = tested on: HOP-62 NSCLC
[31] = tested on: SK-MEL-2 melanoma
[32] = tested on: SK-MEL-28 melanoma
[33] = tested on: SK-OV-3 ovarian
[34] = tested on: COLO 205 colon
[35] = tested on: BT-549 breast
[36] = tested on: OVCAR-8 ovarian
[37] = tested on: NCI-H226 lung
[38] = tested on: HS 578T breast
[39] = tested on: HCC-2998 colon
[40] = tested on: MDA-MB-231 breast
[41] = tested on: DU-145 prostate
[42] = tested on: KM12 colon
[43] = tested on: HCT-15 colon
[44] = tested on: T-47D breast
[45] = tested on: UACC-62 melanoma
[46] = tested on: NCI-H460 lung
[47] = tested on: OVCAR-5 ovarian
[48] = tested on: U251 CNS
[49] = tested on: 786-0 renal
[50] = tested on: MCF7 breast
[51] = tested on: SR leukemia
[52] = tested on: RPMI-8226 leukemia
[53] = tested on: K-562 leukemia
[54] = tested on: MOLT-4 leukemia
[55] = tested on: PC-3 prostate
[56] = tested on: HL-60(TB) leukemia

C[N+](C)(C)C(CSSCC(C(=O)[O-])[N+](C)(C)C)C(=O)[O-] (configuration not stated)
71.2 µM: TGI [1]
inactive: GI50 [1] 25.5 µM | GI50 [2] 72.1 µM | GI50 [3] 32.5 µM

NCCCCC1NC(=O)C(CC(=O)O)NC(=O)CNC(=O)C(CCCN=C(N)N)NC(=O)C(N)CSSCC(C(=O)O)NC(=O)C(CC(=O)O)NC(=O)C2CCCN2C(=O)CNC1=O (configuration not stated)
> 100 µM: TGI [4] | TGI [5] | TGI [6] | TGI [7] | TGI [8] | TGI [9] | TGI [10] | TGI [11] | TGI [12] | TGI [13] | TGI [14] | TGI [15] | TGI [16] | TGI [17] | TGI [18] | TGI [19] | TGI [20] | TGI [21] | TGI [22] | TGI [23] | TGI [24] | TGI [25] | TGI [26] | TGI [27] | TGI [28] | TGI [29] | TGI [30] | TGI [31] | TGI [32] | TGI [33] | TGI [34] | TGI [35] | TGI [36] | TGI [37] | TGI [38] | TGI [39] | TGI [40] | TGI [41] | TGI [42] | TGI [43] | TGI [44] | TGI [45] | TGI [46] | TGI [1] | TGI [47] | TGI [48] | TGI [3] | TGI [49] | TGI [50]
inactive: GI50 [4] > 100 µM | GI50 [5] > 100 µM | GI50 [6] > 100 µM | GI50 [7] > 100 µM | GI50 [8] > 100 µM | GI50 [9] > 100 µM | GI50 [10] > 100 µM | GI50 [11] > 100 µM | GI50 [12] > 100 µM | GI50 [13] > 100 µM | GI50 [14] 65.4 µM | GI50 [15] > 100 µM | GI50 [16] > 100 µM | GI50 [17] > 100 µM | GI50 [18] > 100 µM | GI50 [19] > 100 µM | GI50 [20] > 100 µM | GI50 [21] > 100 µM | GI50 [22] > 100 µM | GI50 [23] > 100 µM | GI50 [24] > 100 µM | GI50 [25] > 100 µM | GI50 [26] > 100 µM | GI50 [27] > 100 µM | GI50 [28] > 100 µM | GI50 [29] > 100 µM | GI50 [30] > 100 µM | GI50 [31] > 100 µM | GI50 [32] > 100 µM | GI50 [33] > 100 µM | GI50 [34] > 100 µM | GI50 [35] > 100 µM | GI50 [36] > 100 µM | GI50 [37] > 100 µM | GI50 [38] > 100 µM | GI50 [39] > 100 µM | GI50 [40] > 100 µM | GI50 [41] > 100 µM | GI50 [42] > 100 µM | GI50 [43] > 100 µM | GI50 [44] > 100 µM | GI50 [45] > 100 µM | GI50 [46] > 100 µM | GI50 [1] > 100 µM | GI50 [47] > 100 µM | GI50 [48] > 100 µM | GI50 [3] > 100 µM | GI50 [49] > 100 µM | GI50 [50] > 100 µM

O=C1NC(=O)C(Cc2cccc(OCc3ccccc3)c2)C(=O)N1
inactive: GI50 [51] 4.07 µg/mL (≈ 12.6 µM)

Nc1cccc(S(=O)(=O)Nc2nnc(S(N)(=O)=O)s2)c1
> 100 µM: TGI [4] | TGI [52] | TGI [5] | TGI [6] | TGI [7] | TGI [8] | TGI [9] | TGI [10] | TGI [51] | TGI [11] | TGI [12] | TGI [13] | TGI [14] | TGI [15] | TGI [16] | TGI [17] | TGI [18] | TGI [19] | TGI [20] | TGI [21] | TGI [22] | TGI [23] | TGI [24] | TGI [26] | TGI [27] | TGI [28] | TGI [29] | TGI [30] | TGI [31] | TGI [32] | TGI [33] | TGI [34] | TGI [53] | TGI [35] | TGI [36] | TGI [54] | TGI [37] | TGI [39] | TGI [55] | TGI [40] | TGI [41] | TGI [42] | TGI [43] | TGI [44] | TGI [45] | TGI [46] | TGI [56] | TGI [1] | TGI [2] | TGI [47] | TGI [48] | TGI [3] | TGI [49] | TGI [50]
